This note sets out measurements from US12594276B2, “Inhibitors of human immunodeficiency virus replication” (ViiV Healthcare UK (No.5) Limited, priority 2024, dated 2026).

Data set [1] can be described thus: Compound cytotoxicity, XTT-based colorimetric assay. Format: cell-based. Conditions: human; uninfected MT2 cells, day 4, XTT; read-out: CC50. The method, boiled down:
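Follows the antiviral assay procedure, but with uninfected MT2 cells. On day 4, cell viability is measured by XTT-based colorimetry, giving CC50 values.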
In general terms: Tetrazolium dyes change colour on reduction, which living cells bring about.

Data set [2] relates to recombinant NL4-3 virus (nef section replaced with Renilla luciferase gene) in MT-2 cells. The data set is described as follows: HIV cell culture assay (antiviral activity, luciferase readout). Format: cell-based. Particulars: Renilla, NL43, MT-2 cells infected for 4-5 days with recombinant NL4-3 Renilla luciferase virus. Put shortly: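 Read-out: Renilla luciferase (live-cell substrate) in infected MT-2 cells after 4-5 d with serial compound dilutions. Virus from 293T transfection of the proviral clone, titered by luciferase in MT-2. EC50 via median effect equation fit.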

For orientation: CC50 means the concentration giving 50% cytotoxicity. As a reminder, the EC50 is the concentration that produces a half-maximal response. On to `COCCCn1nc(NS(C)(=O)=O)c2c(Cl)ccc(-n3c([C@H](Cc4cc(F)cc(F)c4)NC(=O)Cn4nc(C(F)F)c5c4C(F)(F)[C@@H]4C[C@H]54)nc4nc(C5CCC(F)(F)CC5)cc(NCC(C)(C)N5CCCCC5)c4c3=O)c21` (atropisomer, axis not shown; (P)) [Example 539, N-[(1S)-1-[(3P)-3-[4-chloro-3-methanesulfonamido-1-(3-methoxypropyl)-1H-indazol-7-yl]-7-(4,4-difluorocyclohexyl)-5-{[2-methyl-2-(piperidin-1-yl)propyl]amino}-4-oxo-3H,4H-pyrido[2,3-d]pyrimidin-2-yl]-2-(3,5-difluorophenyl)ethyl]-2-[(2S,4R)-9-(difluoromethyl)-5,5-difluoro-7,8-diazatricyclo[4.3.0.0^2,^4]nona-1(6),8-dien-7-yl]acetamide], for which, in data set [1], the CC50 at 4 days was above 20 nM. Moreover, the EC50 in data set [2] turned out to be 0.006 nM.

`COCCCn1nc(NS(C)(=O)=O)c2c(Cl)ccc(-n3c([C@H](Cc4cc(F)cc(F)c4)NC(=O)Cn4nc(C(F)F)c5c4C(F)(F)[C@@H]4C[C@H]54)nc4nc(C5CCC(F)(F)CC5)cc(NCCc5ccn(C)n5)c4c3=O)c21` (atropisomer, axis not shown; (P)) [Example 543, N-[(1S)-1-[(3P)-3-[4-chloro-3-methanesulfonamido-1-(3-methoxypropyl)-1H-indazol-7-yl]-7-(4,4-difluorocyclohexyl)-5-{[2-(1-methyl-1H-pyrazol-3-yl)ethyl]amino}-4-oxo-3H,4H-pyrido[2,3-d]pyrimidin-2-yl]-2-(3,5-difluorophenyl)ethyl]-2-[(2S,4R)-9-(difluoromethyl)-5,5-difluoro-7,8-diazatricyclo[4.3.0.0^2,^4]nona-1(6),8-dien-7-yl]acetamide]: in data set [1], the CC50 at 4 days was above 20 nM. Also, the EC50 in data set [2] was 0.014 nM.

Regarding `COCCCn1nc(NS(C)(=O)=O)c2c(Cl)ccc(-n3c([C@H](Cc4cc(F)cc(F)c4)NC(=O)Cn4nc(C(F)F)c5c4C(F)(F)[C@@H]4C[C@H]54)nc4nc(C5CCC(F)(F)CC5)cc(NCC(C)(C)N5CCOCC5)c4c3=O)c21` (atropisomer, axis not shown; (P)) [Example 546, N-[(1S)-1-[(3P)-3-[4-chloro-3-methanesulfonamido-1-(3-methoxypropyl)-1H-indazol-7-yl]-7-(4,4-difluorocyclohexyl)-5-{[2-methyl-2-(morpholin-4-yl)propyl]amino}-4-oxo-3H,4H-pyrido[2,3-d]pyrimidin-2-yl]-2-(3,5-difluorophenyl)ethyl]-2-[(2S,4R)-9-(difluoromethyl)-5,5-difluoro-7,8-diazatricyclo[4.3.0.0^2,^4]nona-1(6),8-dien-7-yl]acetamide], in data set [1], the CC50 at 4 days was above 20 nM. In addition, in data set [2], the EC50 was determined as 0.017 nM.

For `COCCCn1nc(NS(C)(=O)=O)c2c(Cl)ccc(-n3c([C@H](Cc4cc(F)cc(F)c4)NC(=O)Cn4nc(C(F)F)c5c4C(F)(F)[C@@H]4C[C@H]54)nc4nc(C5CCC(F)(F)CC5)cc(NCCC5CCCCC5)c4c3=O)c21` (atropisomer, axis not shown; (P)) [Example 549, N-[(1S)-1-[(3P)-3-[4-chloro-3-methanesulfonamido-1-(3-methoxypropyl)-1H-indazol-7-yl]-5-[(2-cyclohexylethyl)amino]-7-(4,4-difluorocyclohexyl)-4-oxo-3H,4H-pyrido[2,3-d]pyrimidin-2-yl]-2-(3,5-difluorophenyl)ethyl]-2-[(2S,4R)-9-(difluoromethyl)-5,5-difluoro-7,8-diazatricyclo[4.3.0.0^2,^4]nona-1(6),8-dien-7-yl]acetamide], the CC50 at 4 days in data set [1] was above 20 nM. For the same compound, the EC50 in data set [2] is 0.258 nM.

As for `COCCCn1nc(NS(C)(=O)=O)c2c(Cl)ccc(-n3c([C@H](Cc4cc(F)cc(F)c4)NC(=O)Cn4nc(C(F)F)c5c4C(F)(F)[C@@H]4C[C@H]54)nc4nc(C5CCC(F)(F)CC5)cc(NCCC5CCOCC5)c4c3=O)c21` (atropisomer, axis not shown; (P)) [Example 550, N-[(1S)-1-[(3P)-3-[4-chloro-3-methanesulfonamido-1-(3-methoxypropyl)-1H-indazol-7-yl]-7-(4,4-difluorocyclohexyl)-5-{[2-(oxan-4-yl)ethyl]amino}-4-oxo-3H,4H-pyrido[2,3-d]pyrimidin-2-yl]-2-(3,5-difluorophenyl)ethyl]-2-[(2S,4R)-9-(difluoromethyl)-5,5-difluoro-7,8-diazatricyclo[4.3.0.0^2,^4]nona-1(6),8-dien-7-yl]acetamide], the CC50 at 4 days in data set [1] is above 20 nM. In data set [2], the EC50 came to 0.012 nM.

Consider `COCCCn1nc(NS(C)(=O)=O)c2c(Cl)ccc(-n3c([C@H](Cc4cc(F)cc(F)c4)NC(=O)Cn4nc(C(F)F)c5c4C(F)(F)[C@@H]4C[C@H]54)nc4nc(C5CCC(F)(F)CC5)cc(NCCN5CCC(F)(F)C5)c4c3=O)c21` (atropisomer, axis not shown; (P)) [Example 552, N-[(1S)-1-[(3P)-3-[4-chloro-3-methanesulfonamido-1-(3-methoxypropyl)-1H-indazol-7-yl]-7-(4,4-difluorocyclohexyl)-5-{[2-(3,3-difluoropyrrolidin-1-yl)ethyl]amino}-4-oxo-3H,4H-pyrido[2,3-d]pyrimidin-2-yl]-2-(3,5-difluorophenyl)ethyl]-2-[(2S,4R)-9-(difluoromethyl)-5,5-difluoro-7,8-diazatricyclo[4.3.0.0^2,^4]nona-1(6),8-dien-7-yl]acetamide], for which the CC50 at 4 days in data set [1] was above 20 nM. The EC50 in data set [2] was 0.006 nM.

Turning to `COCCCn1nc(NS(C)(=O)=O)c2c(Cl)ccc(-n3c([C@H](Cc4cc(F)cc(F)c4)NC(=O)Cn4nc(C(F)F)c5c4C(F)(F)[C@@H]4C[C@H]54)nc4nc(C5(F)CCC(F)(F)CC5)cc(C)c4c3=O)c21` (atropisomer, axis not shown; (P)) [Example 553, N-[(1S)-1-[(3P)-3-[4-chloro-3-methanesulfonamido-1-(3-methoxypropyl)-1H-indazol-7-yl]-5-methyl-4-oxo-7-(1,4,4-trifluorocyclohexyl)-3H,4H-pyrido[2,3-d]pyrimidin-2-yl]-2-(3,5-difluorophenyl)ethyl]-2-[(2S,4R)-9-(difluoromethyl)-5,5-difluoro-7,8-diazatricyclo[4.3.0.0^2,^4]nona-1(6),8-dien-7-yl]acetamide], the half-maximal cytotoxic concentration (CC50) at 4 days in data set [1] is above 20 nM. Moreover, in data set [2], the EC50 came to 0.024 nM.

As for `Cc1cc(C2(CF)CCC(F)(F)CC2)nc2nc([C@H](Cc3cc(F)cc(F)c3)NC(=O)Cn3nc(C(F)F)c4c3C(F)(F)[C@@H]3C[C@H]43)n(-c3ccc(Cl)c4c(NS(C)(=O)=O)nn(CCN5C[C@H](F)C[C@H](F)C5)c34)c(=O)c12` (atropisomer, axis not shown; (P)) [Example 556, N-[(1S)-1-[(3P)-3-(4-chloro-1-{2-[(3R,5S)-3,5-difluoropiperidin-1-yl]ethyl}-3-methanesulfonamido-1H-indazol-7-yl)-7-[4,4-difluoro-1-(fluoromethyl)cyclohexyl]-5-methyl-4-oxo-3H,4H-pyrido[2,3-d]pyrimidin-2-yl]-2-(3,5-difluorophenyl)ethyl]-2-[(2S,4R)-9-(difluoromethyl)-5,5-difluoro-7,8-diazatricyclo[4.3.0.0^2,^4]nona-1(6),8-dien-7-yl]acetamide], the CC50 at 4 days in data set [1] is above 20 nM. Besides, in data set [2], the EC50 amounted to 0.014 nM.

In the case of `Cc1cc(C2(CF)CCC(F)(F)CC2)nc2nc([C@H](Cc3cc(F)cc(F)c3)NC(=O)Cn3nc(C4CC4)c4c3C[C@@H]3C[C@H]43)n(-c3ccc(Cl)c4c(NS(C)(=O)=O)nn(CCN5C[C@@H](C)O[C@@H](C)C5)c34)c(=O)c12` (atropisomer, axis not shown; (P)) [Example 557, N-[(1S)-1-[(3P)-3-(4-chloro-1-{2-[(2R,6S)-2,6-dimethylmorpholin-4-yl]ethyl}-3-methanesulfonamido-1H-indazol-7-yl)-7-[4,4-difluoro-1-(fluoromethyl)cyclohexyl]-5-methyl-4-oxo-3H,4H-pyrido[2,3-d]pyrimidin-2-yl]-2-(3,5-difluorophenyl)ethyl]-2-[(2S,4S)-9-cyclopropyl-7,8-diazatricyclo[4.3.0.0^2,^4]nona-1(6),8-dien-7-yl]acetamide], the cytotoxic concentration (CC50) at 4 days in data set [1] is above 20 nM. Besides, the EC50 in data set [2] came to 0.007 nM.

For `COCCCn1nc(NS(C)(=O)=O)c2c(Cl)ccc(-n3c([C@H](Cc4cc(F)cc(F)c4)NC(=O)Cn4nc(C(F)F)c5c4C(F)(F)[C@@H]4C[C@H]54)nc4nc(C5CCC(F)(F)CC5)cc(NCCC(C)(C)OC)c4c3=O)c21` (atropisomer, axis not shown; (P)) [Example 565, N-[(1S)-1-[(3P)-3-[4-chloro-3-methanesulfonamido-1-(3-methoxypropyl)-1H-indazol-7-yl]-7-(4,4-difluorocyclohexyl)-5-[(3-methoxy-3-methylbutyl)amino]-4-oxo-3H,4H-pyrido[2,3-d]pyrimidin-2-yl]-2-(3,5-difluorophenyl)ethyl]-2-[(2S,4R)-9-(difluoromethyl)-5,5-difluoro-7,8-diazatricyclo[4.3.0.0^2,^4]nona-1(6),8-dien-7-yl]acetamide], the CC50 at 4 days in data set [1] was above 20 nM. In data set [2], the concentration giving a half-maximal response (EC50) turned out to be 0.011 nM.

`COCCCn1nc(NS(C)(=O)=O)c2c(Cl)ccc(-n3c([C@H](Cc4cc(F)cc(F)c4)NC(=O)Cn4nc(C(F)F)c5c4C(F)(F)[C@@H]4C[C@H]54)nc4nc(C5CCC(F)(F)CC5)cc(NCC(=O)N5CCCCC5)c4c3=O)c21` (atropisomer, axis not shown; (P)) [Example 566, N-[(1S)-1-[(3P)-3-[4-chloro-3-methanesulfonamido-1-(3-methoxypropyl)-1H-indazol-7-yl]-7-(4,4-difluorocyclohexyl)-4-oxo-5-{[2-oxo-2-(piperidin-1-yl)ethyl]amino}-3H,4H-pyrido[2,3-d]pyrimidin-2-yl]-2-(3,5-difluorophenyl)ethyl]-2-[(2S,4R)-9-(difluoromethyl)-5,5-difluoro-7,8-diazatricyclo[4.3.0.0^2,^4]nona-1(6),8-dien-7-yl]acetamide]: in data set [1], the CC50 at 4 days was above 20 nM. Further, the EC50 in data set [2] worked out at 0.079 nM.
